# Reference: PMC5341405, “Lapachol, a compound targeting pyrimidine metabolism, ameliorates experimental autoimmune arthritis” (Arthritis Research & Therapy, 2017)
# Where two headings read alike, the source gives them in different places.
# Assays:
# [1] = Pharmacokinetics after i.v. administration; assay type: in vivo, Wistar rats; settings: for Vd: read-out: Vdss
# Protocol: (§1) For administration to Wistar rats, LAP was dissolved in DMSO:Tween 80:glucose 5% in a proportion of 15:5:80 (v/v/v), resulting in a solution of 1 mg/ml (for intravenous (i.v.) administration) and another of 5 mg/ml (for oral administration). LAP was administered to rats as an i.v. bolus dose at 2 mg/kg (n = 7) and at two oral doses of 10 (n = 8) and 25 mg/kg (n = 6). LAP salt was administered as i.v. (2 mg/kg, n = 6) and oral doses (30 mg/kg equivalent to 27.5 mg/kg of LAP, n = 8). The i.v. doses were injected into the lateral tail vein, and oral doses were given by gavage. The doses were chosen based on previous toxicological and pharmacodynamic studies. At predetermined time points (30 min before dosing and at 0.08, 0.25, 0.5, 1, 2, 4, 6, 8, 12, and 24 h) after LAP i.v. administration, blood samples (200–250 μl) were withdrawn into heparinized tubes via puncture of the lateral tail vein, opposite to the vein used for drug dosing. The same procedure was carried out after oral administration of LAP, with blood sampling at 0.25, 0.5, 1, 1.5, 2, 3, 6, 12, 24, and 30 h. After LAP sodium salt i.v. and oral dosing, blood samples were harvested up to 10 and 12 h, respectively. Plasma was obtained by centrifugation of blood samples (6800 × g, at 4 °C for 10 min) and stored at –80 °C until analysis by UPLC-MS/MS.
# (§2) LAP and LAP sodium salt pharmacokinetic parameters after i.v. and oral administration were determined from individual plasma profiles by a noncompartmental approach (NCA). The peak plasma concentration (Cmax) and the time of maximum concentration (Tmax) were obtained by visual inspection of the data from the plasma concentration–time curve after oral dosing. Pharmacokinetic parameters such an elimination rate constant (λ), area under the curve (AUC0–∞), clearance (CLtot), half-life (t1/2), volume of distribution (Vdss), mean residence time (MRT), and bioavailability (Fabs) were determined using classical equations. The compartmental analyses were performed using SCIENTIST v.2.0.1 software (MicroMath®, USA). One- and two-compartment models with or without weighting schemes were evaluated. The best model to fit the data was chosen based on the random distribution of residuals, the correlation coefficient, and the model selection criterion (MSC) given by the software.
# (§3) The individual plasma profiles of LAP and LAP sodium salt after i.v. administration were best described by a two-compartmental open model. Plasma profiles after oral administration with two different doses of LAP and one dose of LAP sodium salt were best described by the one-compartmental model.
# (§4) LAP concentration in plasma samples was determined by a validated (FDA, US Food and Drug Administration, 2001) UPLC-MS/MS method. Analyses were run on an Acquity UPLC BEH (Waters Acquity™) C18 column (2.1 × 50 mm, 1.7 μm particle size), with a flow of 300 μl/min at 35 °C. A gradient constituted of water (A) and acetonitrile (B) acidified with 0.1% acetic acid was used as follows: 0 min (90% A), 1 min (75% A), 7 min (50% A), 8.5 min (0% A) and 9.5 min (100% A). For the triple quadrupole, MS parameters were set as follows: capillary voltage (2.20 kV); extractor (3.0 V) source temperature (150 °C), desolvation temperature (300 °C), cone gas flow (50 l/h), and desolvation gas flow (700 l/h). For quantification, a multiple reaction monitoring method (MRM) was applied. For LAP, the transition of m/z 243 > 187 using cone energy of 24 V and collision energy of 19 V was determined as most appropriate for quantification (Calibration curves between 1 and 20,000 ng/ml of LAP, R > 0.99, low quantification limit of 1 ng/ml, and detection limit of 0.1 ng/ml).
# (§5) A total of 200 μl cold acetonitrile containing internal standard (2-methyl-amino-lapachol) at 5 μg/ml and 0.05% trifluoroacetic acid was added to 100 μl of plasma and vortexed for 20 s. Precipitated protein was removed by centrifugation (6800 × g at 4 °C for 10 min). […]
# human CD4 T cells = experiment: Annexin-V/propidium iodide staining for apoptotic cell death; assay type: cell-based; settings: human CD4 T cells, 10, 30, and 100 μM
# Protocol: We next assessed the antiproliferative effect of LAP. To this end, freshly isolated mouse CD4 T cells were labelled with Dye Efluor 670 and stimulated with anti-CD3/CD28 in the presence of LAP or LEF (10, 30, and 100 μM) for 4 days. […] We also investigated the effect of LAP in human CD4 T cells isolated from the peripheral blood of healthy donors. […] Additionally, we performed annexin-V/propidium iodide (PI) staining of human CD4 T cells treated with LAP or LEF to assess apoptotic cell death. […] Thus, the reduction of T-cell proliferation by LAP below 100 μM was primarily due to inhibition of the proliferative response rather than a reduction of cellular viability by toxicity.
# human keratinocytes = tested on: human keratinocytes; parameters: method as in PMID 10479319; settings: in vitro; cited from earlier work
# [2] = Pharmacokinetics after oral administration; assay type: in vivo, Wistar rats; settings: for AUC(0-inf) / k el / Cmax / MRT / Tmax / half-life: Wistar, rat, plasma; for AUC(0-inf): po; for k el: read-out: Ke (converted)
# Protocol: as §1, §2, §3, §4, §5
# DHODH = tested on: DHODH; parameters: method as in PMID 10658902; settings: cited from earlier work
# [3] = Wistar, rat, plasma, iv, 2 mg/kg, 2 mg/kg i.v., 2-Comp
# [4] = Wistar, rat, plasma, iv, 2 mg/kg, 2 mg/kg i.v., NCA
compound,measurement,setting,value
"CC(C)=CCC1=C(O)C(=O)c2ccccc2C1=O [LAP, 2-hydroxy-3-(3methyl-2-butenyl)-1,4-naphthoquinone]",CLtot,"[1]; 2 mg/kg i.v., 2-Comp",0.667 ± 0.167 mL/min/kg
same,Vc,"[1]; 2 mg/kg i.v., 2-Comp",0.11 ± 0.03 L/kg
same,a,"[1]; 2 mg/kg i.v., 2-Comp",10.0 ± 4.1 µg/mL
same,b,"[1]; 2 mg/kg i.v., 2-Comp",8.8 ± 3.1 µg/mL
same,t1/2ß,"[1]; 2 mg/kg i.v., 2-Comp",3.7 ± 0.5 h
same,t1/2α,"[1]; 2 mg/kg i.v., 2-Comp",0.6 ± 0.4 h
same,ß,"[1]; 2 mg/kg i.v., 2-Comp",0.19 ± 0.03 h⁻¹
same,α,"[1]; 2 mg/kg i.v., 2-Comp",1.76 ± 1.52 h⁻¹
same,CLtot,"[1]; 2 mg/kg i.v., NCA",0.667 ± 0.167 mL/min/kg
same,λ,"[1]; 2 mg/kg i.v., NCA",0.18 ± 0.04 h⁻¹
same,AUC(0-inf),[1]; [3],56.4 ± 21.6 µg·h/mL
same,Vd,[1]; [3],0.17 ± 0.03 L/kg
same,AUC(0-inf),[1]; [4],56.1 ± 20.1 µg·h/mL
same,MRT,[1]; [4],5.3 ± 1.2 h
same,Vd,[1]; [4],0.19 ± 0.03 L/kg
same,half-life,"[1]; Wistar, rat, plasma, iv, 2 mg/kg, 2 mg/kg i.v., NCA, read-out: t1/2 (converted)",4.1 ± 1.1 h
same,linearity of pharmacokinetics,[1]; dose range investigated 2–25 mg/kg (i.v. and oral),Linear pharmacokinetics
same,total clearance,"[1]; intravenous administration, rats",0.67 ± 0.17 mL/min/kg
same,"toxicity (apoptotic cell death, annexin-V/PI)",human CD4 T cells,only the highest concentration of LAP (100 μM) was toxic
same,proliferation of human keratinocytes,human keratinocytes,can reduce proliferation of the human keratinocytes
same,Ka,"[2]; 10 mg/kg oral LAP, 1-Comp",2.61 ± 0.85 h⁻¹
same,t1/2ß,"[2]; 10 mg/kg oral LAP, 1-Comp",4.2 ± 0.3 h
same,Fabs,"[2]; 10 mg/kg oral LAP, NCA",77%
same,l,"[2]; 10 mg/kg oral LAP, NCA",0.16 ± 0.01 h⁻¹
same,Ka,"[2]; 25 mg/kg oral LAP, 1-Comp",2.93 ± 0.79 h⁻¹
same,Vdss,"[2]; 25 mg/kg oral LAP, 1-Comp",0.24 ± 0.04 L/kg
same,t1/2ß,"[2]; 25 mg/kg oral LAP, 1-Comp",4.4 ± 0.6 h
same,Fabs,"[2]; 25 mg/kg oral LAP, NCA",65%
same,l,"[2]; 25 mg/kg oral LAP, NCA",0.19 ± 0.03 h⁻¹
same,AUC(0-inf),"[2]; 10 mg/kg, 10 mg/kg oral LAP, 1-Comp",237 ± 20.2 µg·h/mL
same,AUC(0-inf),"[2]; 10 mg/kg, 10 mg/kg oral LAP, NCA",217 ± 22 µg·h/mL
same,AUC(0-inf),"[2]; 25 mg/kg, 25 mg/kg oral LAP, 1-Comp",434 ± 79.7 µg·h/mL
same,AUC(0-inf),"[2]; 25 mg/kg, 25 mg/kg oral LAP, NCA",449 ± 78.1 µg·h/mL
same,k el,"[2]; 10 mg/kg oral LAP, 1-Comp",4.72e-05 s⁻¹
same,Cmax,"[2]; 10 mg/kg oral LAP, NCA",31600 ± 3800 ng/mL
same,MRT,"[2]; 10 mg/kg oral LAP, NCA",7.2 ± 0.6 h
same,Tmax,"[2]; 10 mg/kg oral LAP, NCA",1.2 ± 0.3 h
same,half-life,"[2]; 10 mg/kg oral LAP, NCA",3.2 ± 0.2 h
same,k el,"[2]; 25 mg/kg oral LAP, 1-Comp",4.44e-05 s⁻¹
same,Cmax,"[2]; 25 mg/kg oral LAP, NCA",65600 ± 10600 ng/mL
same,MRT,"[2]; 25 mg/kg oral LAP, NCA",7.2 ± 0.7 h
same,Tmax,"[2]; 25 mg/kg oral LAP, NCA",1.3 ± 0.4 h
same,half-life,"[2]; 25 mg/kg oral LAP, NCA",3.6 ± 0.5 h
same,inhibition of DHODH activity,DHODH,can inhibit DHODH activity
